Key:
[1] = biological target: RAC-beta serine/threonine-protein kinase (Homo sapiens, UniProt P31751); set-up: species or system Sf9
[2] = biological target: RAC-gamma serine/threonine-protein kinase (Homo sapiens, UniProt Q9Y243); set-up: species or system Sf9
[3] = Solubility of the compound; type: physicochemical
in vitro [4] = conditions: human, liver microsomes
in vitro [5] = conditions: female, CD-1, mouse, liver microsomes
in vitro [6] = conditions: male, CD-1, mouse, liver microsomes
in vitro [7] = conditions: female, Beagle, dog, liver microsomes
in vitro [8] = conditions: male, Beagle, dog, liver microsomes
[9] = Oral bioavailability in mouse at 100 mg/kg; type: ADME, organism-based; conditions: in vivo
Mus musculus [10] = assay: In vivo inhibition of AKT1 phosphorylation at Ser473 in human AN3CA cells xenografted in NCr-M nude mouse at 100 mg/kg, po after 1 hr by Western blot analysis; type: functional; conditions: AN3-CA
Mus musculus [11] = assay: In vivo inhibition of AKT1 phosphorylation at Ser473 in human AN3CA cells xenografted in NCr-M nude mouse at 100 mg/kg, po after 8 hrs by Western blot analysis; type: functional; conditions: AN3-CA
Mus musculus [12] = assay: In vivo inhibition of AKT1 phosphorylation at Ser473 in human AN3CA cells xenografted in NCr-M nude mouse at 200 mg/kg, po after 1 hr by Western blot analysis; type: functional; conditions: AN3-CA
Mus musculus [13] = assay: In vivo inhibition of AKT1 phosphorylation at Ser473 in human AN3CA cells xenografted in NCr-M nude mouse at 200 mg/kg, po after 8 hrs by Western blot analysis; type: functional; conditions: AN3-CA
Mus musculus [14] = assay: In vivo inhibition of AKT1 phosphorylation at Thr308 in human AN3CA cells xenografted in NCr-M nude mouse at 100 mg/kg, po after 1 hr by Western blot analysis; type: functional; conditions: AN3-CA
Mus musculus [15] = assay: In vivo inhibition of AKT1 phosphorylation at Thr308 in human AN3CA cells xenografted in NCr-M nude mouse at 100 mg/kg, po after 8 hrs by Western blot analysis; type: functional; conditions: AN3-CA
Mus musculus [16] = assay: In vivo inhibition of AKT1 phosphorylation at Thr308 in human AN3CA cells xenografted in NCr-M nude mouse at 200 mg/kg, po after 1 hr by Western blot analysis; type: functional; conditions: AN3-CA
Mus musculus [17] = assay: In vivo inhibition of AKT1 phosphorylation at Thr308 in human AN3CA cells xenografted in NCr-M nude mouse at 200 mg/kg, po after 8 hrs by Western blot analysis; type: functional; conditions: AN3-CA
Mus musculus [18] = assay: In vivo inhibition of AKT1 phosphorylation in human AN3CA cells xenografted in NCr-M nude mouse assessed as inhibition of PRAS40 phosphorylation at Thr246 at 100 mg/kg, po after 1 hr by Western blot analysis; type: functional; conditions: AN3-CA
Mus musculus [19] = assay: In vivo inhibition of AKT1 phosphorylation in human AN3CA cells xenografted in NCr-M nude mouse assessed as inhibition of PRAS40 phosphorylation at Thr246 at 100 mg/kg, po after 8 hrs by Western blot analysis; type: functional; conditions: AN3-CA
Mus musculus [20] = assay: In vivo inhibition of AKT1 phosphorylation in human AN3CA cells xenografted in NCr-M nude mouse assessed as inhibition of PRAS40 phosphorylation at Thr246 at 200 mg/kg, po after 1 hr by Western blot analysis; type: functional; conditions: AN3-CA
Mus musculus [21] = assay: In vivo inhibition of AKT1 phosphorylation in human AN3CA cells xenografted in NCr-M nude mouse assessed as inhibition of PRAS40 phosphorylation at Thr246 at 200 mg/kg, po after 8 hrs by Western blot analysis; type: functional; conditions: AN3-CA
[22] = Drug uptake in NCr-M nude mouse plasma xenografted with human AN3CA cells at 100 mg/kg, po after 1 hr; type: ADME, organism-based
[23] = Drug uptake in NCr-M nude mouse plasma xenografted with human AN3CA cells at 100 mg/kg, po after 8 hr; type: ADME, organism-based
[24] = Drug uptake in NCr-M nude mouse plasma xenografted with human AN3CA cells at 200 mg/kg, po after 1 hr; type: ADME, organism-based
[25] = Drug uptake in NCr-M nude mouse plasma xenografted with human AN3CA cells at 200 mg/kg, po after 8 hr; type: ADME, organism-based
[26] = Drug uptake in NCr-M nude mouse tumor xenografted with human AN3CA cells at 100 mg/kg, po after 1 hr; type: ADME, organism-based, Neoplasm; conditions: read-out: Drug uptake
[27] = Drug uptake in NCr-M nude mouse tumor xenografted with human AN3CA cells at 100 mg/kg, po after 8 hr; type: ADME, organism-based, Neoplasm; conditions: read-out: Drug uptake
[28] = Drug uptake in NCr-M nude mouse tumor xenografted with human AN3CA cells at 200 mg/kg, po after 1 hr; type: ADME, organism-based, Neoplasm; conditions: read-out: Drug uptake
[29] = Drug uptake in NCr-M nude mouse tumor xenografted with human AN3CA cells at 200 mg/kg, po after 8 hr; type: ADME, organism-based, Neoplasm; conditions: read-out: Drug uptake
[30] = Tmax in rat at 5 mg/kg administered as single dose; type: ADME, organism-based; conditions: in vivo
[31] = Half life in rat at 5 mg/kg administered as single dose; type: ADME, organism-based; conditions: in vivo
[32] = Cmax in rat at 5 mg/kg administered as single dose; type: ADME, organism-based; set-up: dose 5 mg/kg; conditions: in vivo
[33] = AUC (infinity) in rat at 5 mg/kg administered as single dose; type: ADME, organism-based; set-up: dose 5 mg/kg, time infinity; conditions: in vivo
[34] = Oral bioavailability in rat at 5 mg/kg administered as single dose; type: ADME, organism-based; conditions: in vivo
[35] = Tmax in monkey at 10 mg/kg administered as single dose; type: ADME, organism-based, Macaca mulatta; conditions: rhesus monkey, in vivo
[36] = Half life in monkey at 10 mg/kg administered as single dose; type: ADME, organism-based, Macaca mulatta; conditions: rhesus monkey, in vivo
[37] = Cmax in monkey at 10 mg/kg administered as single dose po; type: ADME, organism-based, Macaca mulatta; set-up: dose 10 mg/kg, route oral; conditions: rhesus monkey, in vivo
[38] = AUC (infinity) in monkey at 10 mg/kg administered as single dose; type: ADME, organism-based, Macaca mulatta; set-up: dose 10 mg/kg, time infinity; conditions: rhesus monkey, in vivo
[39] = Oral bioavailability in monkey at 10 mg/kg administered as single dose; type: ADME, organism-based, Macaca mulatta; conditions: rhesus monkey, in vivo

Sequence of RAC-beta serine/threonine-protein kinase (P31751 whole entry): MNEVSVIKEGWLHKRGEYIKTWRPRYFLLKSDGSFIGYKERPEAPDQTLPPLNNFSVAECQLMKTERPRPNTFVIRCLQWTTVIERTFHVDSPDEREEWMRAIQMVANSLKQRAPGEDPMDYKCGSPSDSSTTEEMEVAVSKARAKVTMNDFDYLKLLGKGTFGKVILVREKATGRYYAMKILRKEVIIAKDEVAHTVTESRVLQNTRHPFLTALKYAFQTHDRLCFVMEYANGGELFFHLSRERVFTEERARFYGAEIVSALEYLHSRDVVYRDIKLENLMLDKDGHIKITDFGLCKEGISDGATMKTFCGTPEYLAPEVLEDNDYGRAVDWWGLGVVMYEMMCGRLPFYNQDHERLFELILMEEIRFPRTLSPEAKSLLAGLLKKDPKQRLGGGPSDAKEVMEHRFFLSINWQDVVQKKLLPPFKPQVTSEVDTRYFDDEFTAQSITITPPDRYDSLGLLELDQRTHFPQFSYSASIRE
Sequence of RAC-gamma serine/threonine-protein kinase (Q9Y243 whole entry): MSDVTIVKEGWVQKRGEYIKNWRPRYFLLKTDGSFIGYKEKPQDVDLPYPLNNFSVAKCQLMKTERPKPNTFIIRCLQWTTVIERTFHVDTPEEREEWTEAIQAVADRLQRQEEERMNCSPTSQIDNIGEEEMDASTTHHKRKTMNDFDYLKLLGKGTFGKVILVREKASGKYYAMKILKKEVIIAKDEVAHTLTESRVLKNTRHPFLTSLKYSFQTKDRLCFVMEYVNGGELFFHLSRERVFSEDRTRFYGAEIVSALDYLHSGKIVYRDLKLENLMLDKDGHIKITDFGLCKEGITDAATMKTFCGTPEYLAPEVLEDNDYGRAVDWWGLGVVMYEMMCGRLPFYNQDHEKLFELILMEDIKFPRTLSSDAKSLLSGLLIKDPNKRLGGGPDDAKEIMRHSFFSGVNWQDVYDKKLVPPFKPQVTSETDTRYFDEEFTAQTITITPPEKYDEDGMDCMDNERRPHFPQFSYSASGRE

CC(C)(C)c1ccc(-n2c(-c3cccnc3N)nc3cccnc32)cc1
IC50 [1]: 16 µM | IC50 [2]: 71 µM

Cl.NCc1ccc(-n2c(-c3cccnc3N)nc3ccc(-c4ccccc4)nc32)cc1
solubility [3]: 188 µM | half-life at 1 µM (in vitro [4]): 39 min

NCc1ccc(-n2c(-c3cccnc3N)nc3cccnc32)cc1
IC50 [1]: 9.3 µM | IC50 [2]: > 100 µM

CC(=O)Nc1cccc(-c2ccc3nc(-c4cccnc4N)n(-c4ccc(C5(N)CCC5)cc4)c3n2)c1.Cl
solubility [3]: 160 µM | half-life at 1 µM (in vitro [4]): > 60 min | half-life at 1 µM (in vitro [5]): > 60 min | half-life at 1 µM (in vitro [6]): > 60 min | half-life at 1 µM (in vitro [7]): 50 min | half-life at 1 µM (in vitro [8]): > 60 min

Cl.Nc1ncccc1-c1nc2ccc(-c3ccccc3)nc2n1-c1ccc(C2(N)CCC2)cc1
solubility [3]: 170 µM | bioavailability [9]: 23% | inhibition in vivo at 100 mg/kg (Mus musculus [10]): 99.2% | inhibition in vivo at 100 mg/kg (Mus musculus [11]): 98.6% | inhibition in vivo at 200 mg/kg (Mus musculus [12]): 99.2% | inhibition in vivo at 200 mg/kg (Mus musculus [13]): 99.7% | inhibition in vivo at 100 mg/kg (Mus musculus [14]): 95% | inhibition in vivo at 100 mg/kg (Mus musculus [15]): 96.3% | inhibition in vivo at 200 mg/kg (Mus musculus [16]): 93.3% | inhibition in vivo at 200 mg/kg (Mus musculus [17]): 90.8% | inhibition in vivo at 100 mg/kg (Mus musculus [18]): 57.7% | inhibition in vivo at 100 mg/kg (Mus musculus [19]): 35.9% | inhibition in vivo at 200 mg/kg (Mus musculus [20]): 50.5% | inhibition in vivo at 200 mg/kg (Mus musculus [21]): 42.5% | concentration at 1 h [22]: 2.1 µM | concentration at 8 h [23]: 0.26 µM | concentration at 1 h [24]: 2.7 µM | concentration at 8 h [25]: 1 µM | concentration at 1 h [26]: 21 µM | concentration at 8 h [27]: 9.6 µM | concentration at 1 h [28]: 35.8 µM | concentration at 8 h [29]: 27.4 µM | Tmax [30]: 480 min | half-life [31]: 1020 min | Cmax [32]: 198 ng/mL | AUC(0-inf) [33]: 5500 ng·h/mL | bioavailability [34]: 62% | Tmax [35]: 258 min | half-life [36]: 420 min | Cmax [37]: 258 ng/mL | AUC(0-inf) [38]: 2960 ng·h/mL | bioavailability [39]: 49% | half-life at 1 µM (in vitro [4]): 55 min | half-life at 1 µM (in vitro [5]): 18 min | half-life at 1 µM (in vitro [6]): 17 min | half-life at 1 µM (in vitro [7]): 28 min | half-life at 1 µM (in vitro [8]): 31 min

Cc1ccc(-n2c(-c3cccnc3N)nc3cccnc32)cc1
IC50 [1]: 20 µM | IC50 [2]: > 100 µM

Cl.Nc1ncccc1-c1nc2ccc(-c3cccnc3)nc2n1-c1ccc(C2(N)CCC2)cc1
solubility [3]: 178 µM | half-life at 1 µM (in vitro [4]): > 30 min | half-life at 1 µM (in vitro [5]): 37 min | half-life at 1 µM (in vitro [6]): 31 min | half-life at 1 µM (in vitro [7]): 21 min | half-life at 1 µM (in vitro [8]): > 30 min

CC(=O)Nc1cccc(-c2ccc3nc(-c4cccnc4N)n(-c4ccc(CN)cc4)c3n2)c1.Cl
solubility [3]: ≥ 200 µM | half-life at 1 µM (in vitro [5]): 45 min | half-life at 1 µM (in vitro [6]): > 60 min | half-life at 1 µM (in vitro [7]): > 60 min | half-life at 1 µM (in vitro [8]): > 60 min

NCc1ccc(-n2c(-c3cccnc3N)nc3cc(-c4cccnc4)cnc32)cc1
IC50 [1]: 3.5 µM | IC50 [2]: > 10 µM

Cc1cnc2c(c1)nc(-c1cccnc1N)n2-c1ccc(CN)cc1
IC50 [2]: > 10 µM

Cl.Nc1cccc(-c2ccc3nc(-c4cccnc4N)n(-c4ccc(C5(N)CCC5)cc4)c3n2)c1
solubility [3]: 138 µM | half-life at 1 µM (in vitro [4]): > 60 min | half-life at 1 µM (in vitro [5]): > 60 min | half-life at 1 µM (in vitro [6]): > 60 min | half-life at 1 µM (in vitro [7]): > 60 min | half-life at 1 µM (in vitro [8]): > 60 min
